Experimental data published in US9485972B2, “Truncated tau proteins” (Axon Neuroscience SE, priority 2002, dated 2016).
Each block holds one substance with its values, some of them ahead of it.

What was measured:
[1] = system: tubulin; assay: Inhibitory effect of AD-brain derived and recombinant tau type IA on normal healthy tau in microtubule assembly assay; format: biochemical; settings: 0.2 mg/ml type IA or IB, healthy tau 0.1 mg/ml, tubulin 1 mg/ml, preincubation 1 hr at 37° C., 340 nm, 5 min
Excerpt: AD-brain extracts as well as recombinant molecules of tau type IA are capable to inhibit microtubule assembly promotion when using natural healthy tau isoforms. For these experiments healthy human tau was isolated from brains of age matched controls and tau type IA was isolated from brains of AD patients (see Example 6, FIG. 6, fraction #19). Recombinant tau type IA (SEQ ID NO: 1) and type IB (SEQ ID NO:4, negative control) were produced and purified as shown in Example 6. In these experiments, brain-derived healthy tau isoforms (0.1 mg/ml), AD-brain derived or recombinant type IA tau or type IB (0.2 mg/ml) were mixed with tubulin. Each combination was assayed separately. The test mixtures were incubated 1 hr at 37° C. in a water bath with gently shaking. To the mixture kept on ice was added GTP and/or normal tau (final concentration of tubulin is 1 mg/ml and GTP 1 mM) all reagencies in polymerisation buffer (100 mM PIPES, pH 6.9, 1 mM MgSO4, 2 mM EGTA). After gentle and rapid mixing, the samples were pipetted into quartz microcuvettes and equilibrated at 37° C. in a thermostatically controlled spectrophotometer (Beckman Coulter DU640). The turbidity changes were measured at 340 nm in 10 s intervals for a period of 5 min. […] Curve 1 (FIG. 12) represents microtubule assembly promoted by normal tau.

[2] = system: purified porcine brain tubulin; assay: Microtubule assembly assay (MAA) with tau type IA and type IB; format: biochemical; settings: tau 0.1 mg/ml, tubulin 1 mg/ml, 1 mM GTP, 37° C., 20 min
Description: The physiological function of healthy tau consists in stabilizing microtubules (MTs). This function can be measured by a microtubule assembly assay (MAA). In this examples, the MAA reactions were carried out using three types of tau molecules: normal healthy human tau, recombinant forms of tau type IA (SEQ ID NO: 1) and tau type IB (SEQ ID NO: 4). Normal human tau, tau type IA and type IB were assayed individually in separate reactions. Single preparations of tau at 0.1 mg/ml were mixed with purified porcine brain tubulin at a final concentration of 1 mg/ml and 1 mM GTP, all materials in polymerisation buffer (100 mM PIPES, pH 6.9, 1 mM MgSO4, 2 mM EGTA). Tau was added last to initiate the promotion of MT assembly. After gentle and rapid mixing, the samples were pipetted into quartz microcuvettes and equilibrated at 37° C. in a thermostatically controlled spectrophotometer (Beckman Coulter DU640). The turbidity was continuously monitored at 340 nm in 10 s intervals for a period of 20 min.

[3] = system: tau monoclonal antibody; assay: Competitive ELISA, affinity of monoclonal antibody to tau type IA and deletion mutants; format: binding; settings: read-out: apparent affinity (antigen concentration needed for 50% competition with prototype tau type IA)
Description: FIG. 5: Affinity of monoclonal antibody to diseased tau type IA protein and its deletion mutants. Apparent affinity of monoclonal antibody to diseased tau type IA protein and its deletion mutants. In the first column are listed: the ‘prototype’ tau type IA protein (SEQ ID NO 1) and respective deletion mutants. In the middle column are indicated epitopes of the present invention. Apparent affinities stated in the last column were measured by competitive ELISA, and shown as the concentrations of corresponding antigen needed for 50% competition with the prototype tau type IA protein.
The significance of the ‘conformational region’ in tau type IA (segment A) or its parts was determined by sequential deletion either of whole conformation region (segment A) or its individual parts called epitopes and designated A1-A6. Since the conformation of type IA molecules strongly correlates with their function, the contribution of each epitope (A1-A6) to the overall conformation of the ‘segment A’ was measured on the basis of its reactivity when using a tau monoclonal antibody (FIG. 5).

[4] = system: Human tubulin; assay: Inhibition of microtubule assembly by tau type IA and IB (tubulin preincubated, then normal human tau); format: biochemical; settings: tubulin preincubated 1 hr at 37° C. with 0.2 mg/ml type IA or IB; normal human tau 0.1 mg/ml; 340 nm, 5 min
Description: Both tau type IA and IB molecules lack functional activity when applied in a the MT assembly assay (MAA). […] For inhibition of microtubule assembly, recombinant forms of tau type IA (SEQ ID NO:1) and type IB (SEQ ID NO:4) were used. The assembly-inhibition reactions were carried out separately using type IA and type IB proteins. Human tubulin (2 mg/ml) was mixed with either type IA molecules (0.2 mg/ml) or type IB molecules (0.2 mg/ml). The mixtures were incubated 1 hr at 37° C. with gently shaking. To the mixtures kept on ice normal human tau (0.1 mg/ml) and GTP (final concentration of tubulin in the mixture is 1 mg/ml and GTP 1 mM) were added in polymerization buffer (100 mM PIPES, pH 6.9, 1 mM MgSO4, 2 mM EGTA). After gentle and rapid mixing, the samples were pipetted into quartz microcuvettes and equilibrated at 37° C. in a thermostatically controlled spectrophotometer (Beckman Coulter DU640). The turbidity changes were measured at 340 nm in 10 sec intervals over a period of 5 min.

[5] = system: tubulin; assay: Microtubule assembly with tau type IIA and IIB; format: biochemical; settings: tau 0.1 mg/ml, tubulin 1 mg/ml, GTP 1 mM, 37° C., 340 nm, 5 min
Description: The microtubule assembly reactions were carried out using three types of molecules: natural healthy human tau isoforms, Alz. tau type IIA (SEQ ID NO: 12) and tau type JIB (SEQ ID NO: 19). Three separate reactions were performed, each with single preparation of respective tau (healthy tau, recombinant tau type IIA or type IIB). Individual tau preparations at 0.1 mg/ml were mixed with tubulin and GTP (final concentration of tubulin is 1 mg/ml and GTP 1 mM), all reagencies in polymerisation buffer (100 mM PIPES, pH 6.9, 1 mM MgSO4, 2 mM EGTA). After gentle and rapid mixing, the samples were pipetted into quartz microcuvettes and equilibrated at 37° C. in a thermostatically controlled spectrophotometer (Beckman Coulter DU640). The turbidity changes were measured at 340 nm in 10 s intervals for a period of 5 min.

[6] = system: neuroblastoma cells expressing tau type IIA; assay: Oxidative stress (SIN-1) vulnerability, MTT reduction assay; format: cell-based, human; settings: cells expressing the tau protein vs non-expressing cells, SIN-1 0-3.3 mM, 24 hours
Excerpt: In the present example, the oxidative decomposition of 3-morpholinosydnonimine (SIN-1) was used which generates superoxide anions and nitric oxide, which react and thereby form peroxynitrite. This very reactive radical can further oxidize mainly cellular membrane systems. Persons skilled in art will be able to also apply another sources of oxidative stress to neuroblastoma cells in culture and will be able to obtain the same effect here described by the use on SIN-1.
The effect of vulnerability was tested as follows: • 1. SIN-1 was applied at various concentrations (0-3.32 mM) to human neuronal cell lines expressing tau type IIA protein SEQ ID NO 15 and SEQ ID NO 11, respectively. • 2. […] The EC50 values were compared for neuroblastoma cell lines in the presence or absence of diseased tau type IIA protein expression and the statistical significance of EC50 value differences was assessed by t-test. […]
After five day, SIN-1 was added in concentrations ranging from 0 to 3.3 mM and the plates were incubated for 24 hours. […] The absorbance at 540 nm with background correction at 690 nm was measured on ELISA reader and the background-subtracted values were used for EC50 calculation, as it is well known in the art. […]

[7] = system: microtubules; assay: Electron microscopy of microtubules formed with tau; format: biochemical
Excerpt: However, Alzheimer tau type II produces pathological microtubules with typical pattern (see FIG. 28C).

IC50 [3]: 10 nM
Substance: SEQ ID NO: 1: type IA N- and C-terminally double truncated tau, residues 239-333 of four repeat tau43
inhibition of the capacity of normal tau to promote microtubule assembly [1]: inhibit the capacity of normal tau to promote microtubule assembly
microtubule assembly promotion (turbidity at 340 nm) [2]: lacked any MT assembly promotion
inhibition of microtubule assembly promoted by normal human tau [4]: abolished microtubule assembly

Substance: SEQ ID NO: 4: type IB double truncated tau, 239-326, R4
inhibition of the capacity of normal tau to promote microtubule assembly [1]: not able to inhibit
microtubule assembly promotion (turbidity at 340 nm) [2]: lacked any MT assembly promotion
inhibition of microtubule assembly promoted by normal human tau [4]: does not inhibit the microtubule assembly capacity of normal tau

decrease of resistance of neuroblastoma cells to oxidative stress (EC50 of SIN-1) [6]: 50%
Substance: SEQ ID NO: 12: type IIA double truncated tau, 93-333, R4
promotion of microtubule assembly compared to healthy tau [5]: extremely high (threefold) promotion

decrease of resistance of neuroblastoma cells to oxidative stress (EC50 of SIN-1) [6]: 50%
Substance: SEQ ID NO: 18: type IIA double truncated tau, 69-332, R3

Substance: SEQ ID NO: 19: type IIB double truncated tau, 6-378, R4
promotion of microtubule assembly compared to healthy tau [5]: promote microtubule assembly only to the level seen with healthy tau

Substance: normal healthy tau: tau protein derived from healthy brains [reference compound]
microtubule assembly promotion (turbidity at 340 nm) [2]: microtubule assembly promotion capacity

Substance: tau 43: shortest four repeat tau isoform, 383 amino acids, missing exons 2 and 3
type of microtubules formed (electron microscopy) [7]: forms typical microtubules
